Source: patent US20240327384A1, “SALTS AND SOLID STATE FORMS OF A KIF18A INHIBITOR COMPOUND” (Amgen Inc., priority 2021, published 2024)
Converted amounts (≈) assume the structure as drawn. Read-outs that look alike come from different tables or passages of the source. Marks after values point to notes of the source that are not given here.

Columns and labels:
[1] = Intrinsic dissolution rate (IDR) test; format: physicochemical
Dog cross-over PK study = format: in vivo
Procedure: A total of 3 male dogs were initially assigned to study. All animals were fasted for at least eight hours prior to dosing and through the first four hours of blood sample collection (food was returned within 30 minutes following the collection of the last blood sample at the 4 hour collection interval, if applicable).
Each animal receiver an oral gavage dose (PO) of the appropriate test article solution containing Compound A as outlined in the following study design table. Oral gavage dosing solutions were continuously stirred throughout dosing. The gavage tubes were rinsed with approximately 10 mL of tap water following dosing (prior to removal of the gavage tube). There was a minimum of 10-day washout period between doses for each phase.

[2] = Dynamic vapor sorption (moisture sorption, hygroscopicity); format: physicochemical; conditions: for DVS weight gain: by 95% RH
Procedure: Moisture sorption data was collected using a VTI SGA 100 symmetrical vapor sorption analyzer. A sample size of approximately 5 mg to 10 mg was used in a platinum pan. Hygroscopicity was evaluated from 5% RH to 95% RH in increments of 5% RH. Data for adsorption and desorption cycles were collected. […] Dynamic Vapor Sorption (DVS): Moisture sorption data was collected using a Surface Measurement Systems […] instrument. Equilibrium criteria were set at ±0.001% weight change in 10 minutes with a maximum equilibrium time of 360 minutes.

[3] = Solubility and powder dissolution in FaSSGF, FaSSIF, FeSSIF, water (Example 44); format: physicochemical; conditions: for Sol (pH), Water (first value pair after FeSSIF): pH 1.14 (HCl Form 1), pH 1.08 (Variable Hydrate Form 2); for Sol (pH), Water (first value pair after FeSSIF) / Sol (pH), Water (second value pair after FeSSIF): head of medium unclear; for Sol (pH), Water (second value pair after FeSSIF): pH 1.58 (HCl Form 1), pH 1.64 (Variable Hydrate Form 2)
Procedure: Solubilities of various forms of the Compound A and the Compound A-HCl Form 1 were measured in Fasted State Simulated Gastric Fluid (FaSSGF), Fasted State Simulated Intestinal Fluid (FaSSIF), fed state simulated intestinal fluid […], and water.

KIF18A = target: T1, KIF18A (Homo sapiens, UniProt Q8NI77); experiment: KIF18A ATPase inhibition; format: biochemical
T1 sequence (Q8NI77 1-898): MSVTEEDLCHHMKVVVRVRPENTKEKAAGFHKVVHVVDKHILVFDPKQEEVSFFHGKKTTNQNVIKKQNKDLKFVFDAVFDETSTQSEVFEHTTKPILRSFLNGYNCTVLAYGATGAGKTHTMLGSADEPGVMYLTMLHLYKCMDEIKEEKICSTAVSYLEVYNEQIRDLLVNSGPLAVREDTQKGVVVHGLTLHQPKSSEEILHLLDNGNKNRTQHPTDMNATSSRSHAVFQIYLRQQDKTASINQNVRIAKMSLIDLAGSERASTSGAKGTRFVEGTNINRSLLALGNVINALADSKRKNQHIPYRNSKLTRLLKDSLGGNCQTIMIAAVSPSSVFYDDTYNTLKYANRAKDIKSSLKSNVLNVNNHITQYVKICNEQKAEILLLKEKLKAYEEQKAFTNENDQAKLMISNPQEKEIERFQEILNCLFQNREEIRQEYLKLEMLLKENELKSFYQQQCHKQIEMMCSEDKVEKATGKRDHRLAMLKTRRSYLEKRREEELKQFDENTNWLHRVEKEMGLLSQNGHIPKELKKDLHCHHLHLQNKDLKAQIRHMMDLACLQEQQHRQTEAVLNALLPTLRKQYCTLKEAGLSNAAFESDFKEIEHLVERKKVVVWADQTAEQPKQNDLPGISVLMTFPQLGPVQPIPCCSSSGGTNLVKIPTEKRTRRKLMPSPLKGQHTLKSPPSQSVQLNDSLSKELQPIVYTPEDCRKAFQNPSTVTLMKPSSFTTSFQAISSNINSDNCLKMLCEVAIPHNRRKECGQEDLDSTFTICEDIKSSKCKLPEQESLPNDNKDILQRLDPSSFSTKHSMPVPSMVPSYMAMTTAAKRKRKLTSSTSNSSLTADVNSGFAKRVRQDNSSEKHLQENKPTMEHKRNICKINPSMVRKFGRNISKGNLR

pKa of ionizable groups = format: physicochemical
Description: From high-throughput and manual polymorph screening, the present inventors generated various salts, hydrates, solvates, co-crystals of compound A; and a solid form of the Compound A, including crystalline anhydrous forms, salts, hydrates, solvates, and co-crystals thereof. […] Based on the solid-state properties of the free base forms of Compound A, and their inclinations to form solvates, the present inventors generated various salts, hydrates, solvates, and co-crystals of compound A that may be suitable for drug substance scale up and crystallization for pharmaceutical development.

[4] = Solubility in crystallization solvent 80/20 acetone/water; format: physicochemical; conditions: organic solvent or mixture; 80/20 (v/v) acetone/water, crystallization and slurry aging solvent
Procedure: The process was unseeded and crystal growth occurs during the addition of hydrochloric acid to the Compound A solution. The final slurry was aged at ambient temperature for 10 h, then cooled to 10° C. prior to wet milling. Isolation of the milled material occurred at 10° C. followed by washing of the filter cake with 8 volumes of acetone. The material was dried at 40° C. under vacuum.

[5] = Solubility and powder dissolution of salts in FaSSIF (Example 46); format: physicochemical
Description: All three salts can convert to the free base, but maintain supersaturation in FaSSIF for some time, which indicated a potential good absorption in vivo if used in a pharmaceutical dosage form.

[6] = Polymorph/salt screening: solid form stability, conversion and solubility; format: physicochemical
[7] = male dogs, fasted, PO 10 mg/kg, cross-over, listed as Amorphous Cmp A, 10 mg/kg
[8] = male dogs, fasted, PO 10 mg/kg, cross-over, listed as Cmp A-Anhydrous Form 3, 10 mg/kg
[9] = male, dog, plasma, po, 10 mg/kg, male dogs, fasted, cross-over, read-out: Tmax
[10] = pH 1.6, solubility from powder dissolution measurements
[11] = pH 6.5, solubility from powder dissolution measurements
[12] = pH 5.0, solubility from powder dissolution measurements
[13] = male, dog, plasma, po, 10 mg/kg, male dogs, fasted, cross-over

Cc1cc(NC(=O)c2ccc(NS(=O)(=O)CCO)cc2N2CCC3(CC2)CC3)nc(N2CCC(F)(F)CC2)n1 [Amorphous Compound A]
IDR ([1]; listed as Amorphous Cmp A): 36.2 ug/min*cm^2 | AUCt (Dog cross-over PK study; [7]): 237 ± 68 µM·h | Cmax (Dog cross-over PK study; [7]): 6.9 ± 1.3 µM | Tmax (Dog cross-over PK study; [7]): 6.7 ± 2.3 h

Cc1cc(NC(=O)c2ccc(NS(=O)(=O)CCO)cc2N2CCC3(CC2)CC3)nc(N2CCC(F)(F)CC2)n1 [Anhydrous Compound A Form 3]
DVS weight gain [2]: about 1.5% | Sol (pH), FaSSGF ([3]; pH 1.6 (end of experiment), solubility from 2 hr time point): 99.3 μg/mL | Sol (pH), FaSSIF ([3]; pH 6.5 (end of experiment), solubility from 2 hr time point): 87 μg/mL | Sol (pH), FeSSIF ([3]; pH 5.0 (end of experiment), solubility from 2 hr time point): 352 (5.0)* μg/mL | Sol (pH), Water ([3]; Water, pH 8.0 (end of experiment), solubility from 2 hr time point): 5.4 (8.0)* μg/mL | AUCt (Dog cross-over PK study; [8]): 69 ± 6 µM·h | Cmax (Dog cross-over PK study; [8]): 2.3 ± 0.2 µM | Tmax (Dog cross-over PK study; [9]): 4.7 ± 1.2 h

Cc1cc(NC(=O)c2ccc(NS(=O)(=O)CCO)cc2N2CCC3(CC2)CC3)nc(N2CCC(F)(F)CC2)n1 [Anhydrous Compound A Form 5]
DVS observation in words [2]: rehydrated to the Compound A-Variable Hydrate Form 2

Cc1cc(NC(=O)c2ccc(NS(=O)(=O)CCO)cc2N2CCC3(CC2)CC3)nc(N2CCC(F)(F)CC2)n1 [Compound A, 2-(6-azaspiro[2.5]octan-6-yl)-N-[2-(4,4-difluoropiperidin-1-yl)-6-methylpyrimidin-4-yl]-4-[(2-hydroxyethanesulfonyl)amino]benzamide]
ATPase activity inhibited (MT-ATPase vs basal ATPase) (KIF18A): inhibits MT-ATPase activity and not basal ATPase activity | pKa (pKa of ionizable groups; read-out: weakly acidic pKa): 7.3 | pKa (pKa of ionizable groups; read-out: weakly basic pKa): 3.9 | solubility [4]: ~18 mg/mL (≈ 31.9 mM)

Cc1cc(NC(=O)c2ccc(NS(=O)(=O)CCO)cc2N2CCC3(CC2)CC3)nc(N2CCC(F)(F)CC2)n1.Cl [Compound A-HCl Form 1]
solubility [4]: ~8 mg/mL | DVS weight gain [2]: less than 0.5% | powder dissolution compared with other forms, in words [3]: faster dissolution than the Compound A-Variable-Hydrate Form 2, or Compound A-Anhydrous Form 3, but a slower dissolution than the Amorphous Compound A | Sol (pH), FaSSGF [3, 10]: 6.3 ± 0.5 μg/mL | Sol (pH), FaSSIF [3, 11]: 62.7 ± 9.0 μg/mL | Sol (pH), FeSSIF [3, 12]: 437.1 ± 16.3 (5.0)^ μg/mL | Sol (pH), Water (first value pair after FeSSIF) [3]: 7.9 μg/mL | Sol (pH), Water (second value pair after FeSSIF) [3]: 13 μg/mL | IDR [1]: 2.14 ug/min*cm^2 | exposure compared to Amorphous Compound A, in words (Dog cross-over PK study; dog, PO 10 mg/kg): lower exposure than the Amorphous Compound A form | increase in exposure compared to Compound A-Anhydrous Form 3 (Dog cross-over PK study; dog, PO 10 mg/kg): ~2 fold | AUC(0-t) (Dog cross-over PK study; [13]): 181 ± 79 µM·h | Cmax (Dog cross-over PK study; [13]): 4.7 ± 1.4 µM | Tmax (Dog cross-over PK study; [9]): 6 h | Sol (pH), FaSSIF ([5]; pH 6.5): 104.2 (6.5) μg/mL

Cc1cc(NC(=O)c2ccc(NS(=O)(=O)CCO)cc2N2CCC3(CC2)CC3)nc(N2CCC(F)(F)CC2)n1 [Compound A-MsA Form 1]
DVS weight gain ([2]; listed as Crystalline Compound A-MsA Form 1): about 1.2% | DVS weight gain ([2]; listed as crystalline Compound A-MsA Salt Form 1): less than 1.2% | kinetic solubility, dissolution rate and supersaturation in FaSSIF, in words ([5]; listed as Mesylate (A-MsA or A-MSA) Salt Form 1): better than the HCl Salt Form 1 | Sol (pH), FaSSIF ([5]; pH 6.5, listed as Cmp A-MSA Form 1): 133.0 (6.5) μg/mL

Cc1cc(NC(=O)c2ccc(NS(=O)(=O)CCO)cc2N2CCC3(CC2)CC3)nc(N2CCC(F)(F)CC2)n1 [Compound A-Sulfate Form 1]
DVS observation in words ([2]; listed as Crystalline Compound A-Sulfate Form 1): deliquesces at 90% RH

Cc1cc(NC(=O)c2ccc(NS(=O)(=O)CCO)cc2N2CCC3(CC2)CC3)nc(N2CCC(F)(F)CC2)n1 [Compound A-TsA Form 4]
kinetic solubility, dissolution rate and supersaturation in FaSSIF, in words ([5]; listed as Tosylate (A-TsA or A-TSA) Salt Form 4): better than the Mesylate (A-MsA or A-MSA) Salt Form 1 | Sol (pH), FaSSIF ([5]; pH 6.5, listed as Cmp A-TSA Form 4): 160.6 (6.5) μg/mL

Cc1cc(NC(=O)c2ccc(NS(=O)(=O)CCO)cc2N2CCC3(CC2)CC3)nc(N2CCC(F)(F)CC2)n1 [Compound A-Variable Hydrate Form 2]
DVS weight gain [2]: about 3.4% | Sol (pH), FaSSGF [3, 10]: 20 μg/mL | Sol (pH), FaSSIF [3, 11]: 10.6 μg/mL | Sol (pH), FeSSIF [3, 12]: 144.5(5.0)^ μg/mL | Sol (pH), Water (first value pair after FeSSIF) [3]: 243 μg/mL | Sol (pH), Water (second value pair after FeSSIF) [3]: 23 μg/mL | IDR ([1]; listed as Cmp A-Variable Hydrate Form 2): 0.42 ug/min*cm^2 | solubility, in words [6]: very low solubility
